In PMC6328932, “Procaspase activating compound 1 controls tetracycline repressor-regulated gene expression system” (Bioscience Reports, 2019):

B1: tetO (dsDNA)
DNA 1: CCTAATTTTTGTTGACACTCTATCATTGATAGAGTTATTTTACCACTC
DNA 2: GAGTGGTAAAATAACTCTATCAATGATAGAGTGTCAACAAAAATTAGG

Columns and labels:
[1] = molecular target: TetR (TetR(B), tetracycline repressor) (Escherichia coli, UniProt P04483); assay: SPR, TetR immobilised on CMDH chip by EDC/NHS coupling; format: binding
[2] = molecular target: TetR(B) (Escherichia coli? (TetR(B) cDNA …, UniProt P04483 1-207)); assay: EMSA; complex appears from 0.5 uM TetR with 0.5 uM tetO; no Dox; EMSA: 20 mM Tris-HCl pH 8.0, 50 mM NaCl, 1 mM MgCl2, 0.1 mM DTT, 15 min at room temperature; 8% PAGE in 90 mM Tris, 90 mM boric acid, 5 mM MgCl2; details: protein: recombinant; (cloned NdeI-XhoI; Ni-NTA purified); chain copies: 2; label: none (ethidium bromide stain); blunt
TetR(B) (Escherichia coli?, sequence (P04483 whole entry): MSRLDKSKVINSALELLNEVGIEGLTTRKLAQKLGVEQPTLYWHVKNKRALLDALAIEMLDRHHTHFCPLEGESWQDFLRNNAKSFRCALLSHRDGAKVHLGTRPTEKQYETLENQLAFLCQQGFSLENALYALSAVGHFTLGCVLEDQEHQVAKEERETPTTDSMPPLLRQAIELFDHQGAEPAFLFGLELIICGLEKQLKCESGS

TetR (TetR(B), tetracycline repressor), sequence (P04483 whole entry, looked up): as the sequence (P04483 whole entry) above

Molecule | Kd [1] [µM] | binding result [2]
C=CCc1cccc(C=NNC(=O)CN2CCN(Cc3ccccc3)CC2)c1O [PAC-1] | 260 | –
B1 | – | binds
